Experimental data as given in patent publication US20230044602A1, “CANCER SIGNATURES, METHODS OF GENERATING CANCER SIGNATURES, AND USES THEREOF” (EDWARD VIA COLLEGE OF OSTEOPATHIC MEDICINE, priority 2019, published 2023).

Tests used:
NSCLC and GBM = conditions: Refs. 83-85; cited from earlier work
[1] = Refs. 3 and 11; cited from earlier work
GBM patients = assay: Disease-free survival of PGS-stratified TCGA GBM patients treated with or without TMZ; assay type: in vivo, human; conditions: TCGA training cohort
Procedure: Clinical data on adjuvant chemotherapy (ACT) or TMZ administration for the TOGA training cohorts were retrieved from the NCI GDC data portal, and the Buffa hypoxia scores for each patient were retrieved from TOGA PanCancer Atlas through cBioPortal (Ref. 54). Differences in patient benefit from treatment across risk groups were assessed using one-tailed two-sample t-tests on unequal variances and Fisher's Exact Tests. Two-tailed two-sample t-tests on unequal variances assessed the correlation of PGS risk stratification with tumor hypoxia in NSCLC.

Row | Structure (SMILES) | efficacy in treating NSCLC and GBM (NSCLC and GBM) | penetration through the blood-brain barrier [1] | average DFS time (GBM patients; high-risk progression GBM patients (GBM-PGS) treated with TMZ) | average DFS time (GBM patients; low-risk progression GBM patients (GBM-PGS) treated with TMZ)
1 | NS(=O)(=O)c1cccc2c1C(=O)c1cccc(O)c1C2=O [LLL12] | promising efficacy | – | – | –
2 | Cn1nnc2c(C(N)=O)ncn2c1=O [TMZ, Temozolomide] | – | efficient penetration | 10.80 months | 16.52 months
3 | Cc1cc(Nc2nc(N[C@@H](C)c3ncc(F)cn3)ncc2Cl)n[nH]1 [AZD1480] | promising efficacy | – | – | –
